Experimental data as given in PMC7550323 (Clinical Pharmacokinetics, 2020).
Where two headings read alike, the source gives them in different places.

Columns and labels:
[1] = for Tmax / half-life / AUC / Cmax: human, plasma, oral; for Tmax / AUC / Cmax: single dose (Day-2)
MV4-11 AML cells = conditions: mice xenografted with MV4-11 AML cells; cited from earlier work
FLT3 = conditions: cited from earlier work
[2] = assay type: in vivo, human
[3] = test system: FLT3 receptors expressing the F691L gatekeeper mutation; conditions: cited from earlier work
[4] = multiple dosing QD (Day 15), 20 mg, n = 3
[5] = multiple dosing QD (Day 15), 40 mg, n = 2
[6] = multiple dosing QD (Day 15), 40 mg, n = 12
[7] = multiple dosing QD (Day 15), 80 mg, n = 3
[8] = multiple dosing QD (Day 15), 80 mg, n = 20
[9] = multiple dosing QD (Day 15), 120 mg, n = 3
[10] = multiple dosing QD (Day 15), 120 mg, n = 61
[11] = multiple dosing QD (Day 15), 200 mg, n = 2
[12] = multiple dosing QD (Day 15), 200 mg, n = 79
[13] = multiple dosing QD (Day 15), 300 mg, n = 3
[14] = multiple dosing QD (Day 15), 300 mg, n = 15
[15] = metabolite profiling after 14C-gilteritinib
[16] = single oral dose of 14C-gilteritinib

Question: Which Tmax ([1]; 80 mg, Median (range), n = 3) does the source give for `CCc1nc(C(N)=O)c(Nc2ccc(N3CCC(N4CCN(C)CC4)CC3)c(OC)c2)nc1NC1CCOCC1` [gilteritinib, Gilteritinib] here?
Answer: 4 h

Question: What about the half-life ([1]; 80 mg, t½, Mean (SD), multiple dosing QD (Day 15), 80 mg, n = 3, calculated from Rac) of the same molecule?
Answer: 86.1 h

Question: And the half-life ([1]; 80 mg, t½, Median (range), multiple dosing QD (Day 15), 80 mg, n = 3, calculated from Rac)?
Answer: 91 h

Question: And the AUC ([1]; 120 mg, AUC24, Mean (SD), n = 3)?
Answer: 2480 ng·h/mL

Question: And the AUC ([1]; 120 mg, AUC24, Median (range), n = 3)?
Answer: 1390 ng·h/mL

Question: What about the Cmax ([1]; 120 mg, Mean (SD), n = 3) of the same molecule?
Answer: 137 ng/mL

Question: And the Cmax ([1]; 120 mg, Median (range), n = 3)?
Answer: 85.7 ng/mL

Question: And the Tmax ([1]; 120 mg, Median (range), n = 3)?
Answer: 2.1 h

Question: What about the half-life ([1]; 120 mg, t½, Mean (SD), multiple dosing QD (Day 15), 120 mg, n = 3, calculated from Rac) of the same molecule?
Answer: 45.9 h

Question: And the half-life ([1]; 120 mg, t½, Median (range), multiple dosing QD (Day 15), 120 mg, n = 3, calculated from Rac)?
Answer: 44.9 h

Question: And the AUC ([1]; 200 mg, AUC24, Mean (SD), n = 3)?
Answer: 3020 ng·h/mL

Question: And the AUC ([1]; 200 mg, AUC24, Median (range), n = 3)?
Answer: 2540 ng·h/mL

Question: And the Cmax ([1]; 200 mg, Mean (SD), n = 3)?
Answer: 168 ng/mL

Question: And the Cmax ([1]; 200 mg, Median (range), n = 3)?
Answer: 149 ng/mL

Question: What about the Tmax ([1]; 200 mg, Median (range), n = 3) of the same molecule?
Answer: 5.2 h

Question: What about the half-life ([1]; 200 mg, t½, Mean (SD), multiple dosing QD (Day 15), 200 mg, n = 2, calculated from Rac) of the same molecule?
Answer: 142 h

Question: What about the half-life ([1]; 200 mg, t½, Median (range), multiple dosing QD (Day 15), 200 mg, n = 2, calculated from Rac) of the same molecule?
Answer: 142 h

Question: What about the AUC ([1]; 300 mg, AUC24, Mean (SD), n = 3) of the same molecule?
Answer: 4160 ng·h/mL

Question: And the AUC ([1]; 300 mg, AUC24, Median (range), n = 3)?
Answer: 2450 ng·h/mL

Question: And the Cmax ([1]; 300 mg, Mean (SD), n = 3)?
Answer: 204 ng/mL

Question: And the Cmax ([1]; 300 mg, Median (range), n = 3)?
Answer: 137 ng/mL

Question: What about the Tmax ([1]; 300 mg, Median (range), n = 3) of the same molecule?
Answer: 6.1 h

Question: What about the half-life ([1]; 300 mg, t½, Mean (SD), multiple dosing QD (Day 15), 300 mg, n = 3, calculated from Rac) of the same molecule?
Answer: 142 h

Question: What about the half-life ([1]; 300 mg, t½, Median (range), multiple dosing QD (Day 15), 300 mg, n = 3, calculated from Rac) of the same molecule?
Answer: 159 h

Question: What about the AUC ([1]; 450 mg, AUC24, Mean (SD), n = 2) of the same molecule?
Answer: 3320 ng·h/mL

Question: What about the AUC ([1]; 450 mg, AUC24, Median (range), n = 2) of the same molecule?
Answer: 3320 ng·h/mL

Question: And the Cmax ([1]; 450 mg, Mean (SD), n = 3)?
Answer: 208 ng/mL

Question: And the Cmax ([1]; 450 mg, Median (range), n = 3)?
Answer: 216 ng/mL

Question: And the Tmax ([1]; 450 mg, Median (range), n = 3)?
Answer: 5.8 h

Question: And the half-life ([1]; estimated t1/2, across dose cohorts, multiple dosing)?
Answer: 45 to 159 h

Question: And the “accumulation based on the accumulation index” value ([1]; multiple dosing QD)?
Answer: up to ten-fold accumulation

Question: And the “Rac (accumulation ratio), Mean (SD)” value [1, 4]?
Answer: 4.3 (1.069)

Question: And the “Rac (accumulation ratio), Median (range)” value [1, 4]?
Answer: 3.8 (3.5–5.5)

Question: And the “Ctrough, Mean (SD)” value ([1]; multiple dosing QD (Day 15), 20 mg, n = 11)?
Answer: 43.5 (23.5) ng/mL

Question: What about the “Rac (accumulation ratio), Mean (SD)” value [1, 5] of the same molecule?
Answer: 9.6 (7.8)

Question: And the “Rac (accumulation ratio), Median (range)” value [1, 5]?
Answer: 9.6 (4.2–15.1)

Question: What about the “Ctrough, Mean (SD)” value [1, 6] of the same molecule?
Answer: 72.9 (40.1) ng/mL

Question: And the “Ctrough, Median (range)” value [1, 6]?
Answer: 66.6 (26.7–166) ng/mL

Question: What about the “Rac (accumulation ratio), Mean (SD)” value [1, 7] of the same molecule?
Answer: 5.7 (1.4)

Question: What about the “Rac (accumulation ratio), Median (range)” value [1, 7] of the same molecule?
Answer: 6.0 (4.1–6.97)

Question: And the “Ctrough, Mean (SD)” value [1, 8]?
Answer: 165 (88.0) ng/mL

Question: And the “Ctrough, Median (range)” value [1, 8]?
Answer: 110 (78.6–339) ng/mL

Question: What about the “Rac (accumulation ratio), Mean (SD)” value [1, 9] of the same molecule?
Answer: 3.3 (1.2)

Question: And the “Rac (accumulation ratio), Median (range)” value [1, 9]?
Answer: 3.2 (2.2–4.4)

Question: And the “Ctrough, Mean (SD)” value [1, 10]?
Answer: 367 (253) ng/mL

Question: What about the “Ctrough, Median (range)” value [1, 10] of the same molecule?
Answer: 292 (77.1–1173) ng/mL

Question: What about the “Rac (accumulation ratio), Mean (SD)” value [1, 11] of the same molecule?
Answer: 9.0 (3.7)

Question: And the “Rac (accumulation ratio), Median (range)” value [1, 11]?
Answer: 9.0 (6.4–11.7)

Question: What about the “Ctrough, Mean (SD)” value [1, 12] of the same molecule?
Answer: 816 (557) ng/mL

Question: And the “Ctrough, Median (range)” value [1, 12]?
Answer: 668 (90.5–2925) ng/mL

Question: What about the “Rac (accumulation ratio), Mean (SD)” value [1, 13] of the same molecule?
Answer: 9.1 (3.3)

Question: What about the “Rac (accumulation ratio), Median (range)” value [1, 13] of the same molecule?
Answer: 10.1 (5.4–11.7)

Question: What about the “Ctrough, Mean (SD)” value [1, 14] of the same molecule?
Answer: 1242 (723) ng/mL

Question: And the “Ctrough, Median (range)” value [1, 14]?
Answer: 1085 (470–2391) ng/mL

Question: And the “Ctrough, Mean (SD)” value ([1]; multiple dosing QD (Day 15), 450 mg, n = 1)?
Answer: 1170 ng/mL

Question: What about the “effect on tumor growth” value (MV4-11 AML cells) of the same molecule?
Answer: inhibited tumor growth and induced tumor regression

Question: What about the “inhibition of FLT3 receptors with ITD and D835 mutations” value (FLT3) of the same molecule?
Answer: highly specific potent inhibition

Question: And the “selectivity for FLT3” value (FLT3; preclinical evaluations)?
Answer: highly selective for FLT3

Question: What about the “average total blood-to-plasma ratios of total 14C-radioactivity” value ([2]; after [14C]-gilteritinib 120 mg single dose at steady state) of the same molecule?
Answer: 0.8514–1.361

Question: What about the “radioactive peak in feces, accounting for” value [2, 15] of the same molecule?
Answer: 11.7–23.8%

Question: And the “radioactive peak in urine, accounting for” value [2, 15]?
Answer: 6.3–15.8%

Question: And the “total administered dose recovered in feces” value [2, 16]?
Answer: 64.5%

Question: What about the “total dose recovered in urine” value [2, 16] of the same molecule?
Answer: 16.4%

Question: And the “total radioactive dose recovered” value [2, 16]?
Answer: 80.9%

Question: What about the “activity against FLT3 receptors expressing the F691L gatekeeper mutation” value [3] of the same molecule?
Answer: weak activity
